Test results: patent publication US20230321063A1, “COMPOSITIONS AND METHODS TO REDUCE NEUROINFLAMMATION” (Seattle Children's Hospital d/b/a Seattle Children's …, priority 2020, published 2023)

Key:
[1] = system: control and Ndufs4(KO) mice; test: Glucose tolerance test (GTT) and glucose induced lactate test; assay type: in vivo, mouse; conditions: 2 g/kg glucose IP; pexidartinib 300 mg/kg/d in chow, IPI-549 100 mg/kg/d in chow, rapamycin (ABI-009) 8 mg/kg/d IP
Excerpt: Point-of-care glucose and lactate testing. Blood glucose and lactate measurements were collected using point-of-care meters (Prodigy Autocode® glucose meter, product #51850-3466188, Prodigy® Diabetes Care, LLC, Charlotte, NC; lactate assay meter, product #40828, Nova Biomedical, Waltham, MA) and the tail-prick method, as previously described (Stokes et al. Elife 2021; 10:e65400).
Glucose tolerance test (GTT) and glucose induced lactate test. Prior to performing the GTT, mice were fasted for 4 hours, from 10 AM-2 PM. The fasting duration was limited to 4 hours given the sensitivity of untreated Ndufs4(KO) animals to hypoglycemia and related sequelae (dysregulation of body temperature, hypoglycemia induced seizure, etc.). For the ABI-009 cohort, mice received their daily ABI-009 treatment at the start of this fasting period. At the end of the 4 hour fast, baseline blood glucose and lactate values were collecting using point-of-care meters and the tail-prick method. Mice were then injected by IP with 2 g/kg dextrose (10 microliters/gram body weight of 200 mg/mL glucose in 1×PBS, 0.2 micron sterile filtered) using an insulin syringe (31-gauge, 6 mm length, 3/10 cc, BD Veo Ultra-Fine needle). Glucose and lactate levels were measured using a minimally invasive tail-prick method at designated timepoints post-injection.

[2] = system: microglia in mixed neonatal brain-cell cultures; test: Fraction of microglia in mixed primary brain cultures (Iba1 staining); assay type: cell-based, mouse
Procedure: Mixed brain cell culturing and staining. Briefly, using sterile technique, brains were removed from neonatal pups into ice-cold HBSS (Gibco cat. #14025076). Brains were washed three times in cold PBS. After the third wash, brains were minced using surgical scissors into small, fine pieces. The minced brain was centrifuged at 100 g for 5 min. Once pelleted, PBS was removed and 0.05% trypsin/EDTA (Gibco) was added. The tissue in trypsin/EDTA was then incubated at 37° C. with gentle shaking for 15-30 min, with intermittent mixing and supplemental mincing, until the solution was homogenous and without tissue segments. After incubation, the minced tissue was placed back into the centrifuge at 100 g 5 min. Pellet was washed 3× with cold PBS before adding fresh media to each tube. The tissue was further dissociated using 1000 μL pipet until the solution became cloudy. The sample was washed through a sterile 70-micron cell strainer (Corning) into a 50 mL falcon tube, then plated onto T75 poly-d-lysine coated Nunclon flasks (Nunc EasyFlask132704) at a ratio of one brain to two flasks. After 24 hours, dead cell/debris were washed and media replaced. Cells were then grown for 1 additional day, split onto multi-well plates with poly-d-lysine coated coverslips (Cellware 12 mm round coverslips) at 25% confluence with ABI-009 or pexidartinib (for dose-response) added. […]

**Q.** With `FC(F)(F)c1ccc(CNc2ccc(Cc3c[nH]c4ncc(Cl)cc34)cn2)cn1` [pexidartinib, 5-[(5-chloro-1H-pyrrolo[2,3-b]pyridin-3-yl)methyl]-N-[[6-(trifluoromethyl)pyridin-3-yl]methyl]pyridin-2-amine] as the compound, how does the “blood lactate spike in response to a glucose bolus” value [1] read?
**A.** prevented this spike in blood lactate

**Q.** And the “maximum effect on microglia” value [2]?
**A.** nearly complete depletion of microglia

**Q.** And the “fraction of microglia present in mixed neonatal brain-cell cultures” value ([2]; dose-response, fixed on day 7)?
**A.** dose-dependently reduced
